Patent publication US20260284127A1, “COMPOSITIONS OF […] CORDYCEPS AND METHODS OF DELIVERY FOR THE TREATMENT OF ACUTE AND LONG COVID” (priority 2023, published 2026)

Experiments:
CaCo2 = conditions: human, Caco-2; cited from earlier work
[1] = cited from earlier work
[2] = cordycepin after one oral dose of HAD-B1 formula; cited from earlier work
CaCo2 cells = type: in vitro ADME; conditions: 200 μg/ml cordycepin apical, pure solution
Description: Methods: Transepithelial wells with a 1 μm pore size and 0.3 cm^2 surface area were preincubated with DMEM-F12 media with 10% FBS and 10 μg/ml penicillin/streptomycin at 37° C. in 5% CO2 for one hour. CaCo2 cells in the same media were seeded at a density of 50,000 cells. The cells were maintained under these conditions throughout the experiment. Media was changed every 2 to 3 days, and TEER values were monitored from day 10 onward. At day 18, cells with TEER values exceeding 200 ohm/cm^2 were incubated in PAB buffer for 20 minutes: 1 ml in basolateral and 0.5 ml in apical side. Samples of 200 μg/ml cordycepin, and 200 μg/ml cordycepin in a standardized cordyceps extract were prepared in PAB buffer, which was exchanged for the apical buffer. Fifty microlitre samples of both apical and basolateral compartments were acquired initially and at 1 hour intervals. The samples were immediately added to 450 μl of methanol and quantified on an Agilent 4910 LC-mass spectrometer. Cordycepin was measured by direct injection in SMS mode and integrated values were compared against standard curves prepared in the same manner as test samples.

[3] = given as a pure compound; cited from earlier work

## Nc1ncnc2c1ncn2[C@@H]1O[C@H](CO)C[C@H]1O [cordycepin, 3′-deoxyadenosine]
CaCo2
  CaCo2 permeability: 1.1*10^−7 cm/s
[1]
  experimental solubility in water: 1 mg/mL
[2]
  half-life: 8.62 h
  time to maximal concentration: 1.5 h
CaCo2 cells
  cordycepin measured on the basal side: no detectable
[3]
  oral bioavailability: extremely low
